Measured values taken from patent publication US20190169564A1, “METHODS OF CULTURING MICROORGANISMS IN NON-AXENIC MIXOTROPHIC CONDITIONS” (HELIAE DEVELOPMENT, LLC, priority 2012, published 2019).

Columns and labels:
Chlorella = assay: Mixotrophic Chlorella culture in bubbled column reactor with pH-auxostat, comparison of organic carbon sources
Chlorella sp. SNL333 = assay: Yield of raceway pond mixotrophic Chlorella culture after contamination treatment; assay type: cell-based
Protocol: Chlorella sp. SNL333 was grown in a mixotrophic system in the pond raceway systems described above in Example 4. The area of the raceway photobioreactor was 5.6 m^2 with an operating volume of 568 L at a depth of 15 cm. One unit was mixed with a pump (Reactor 1), and the other via a paddle wheel (Reactor 2). Air was delivered to the paddle wheel system via an air stone. Air was delivered to the pumped reactor via a venturi injection system. Eductors were used in the pumped reactor to increase water velocity and enhance oxygen transfer of the liquid medium. […] The nitrate level in the modified BG-11 recipe consisted of 400 mg/L, and was determined via the nitrate consumption rates from previous trials.
Nitrate levels were adjusted towards the end of the trial to maintain residual nitrate in the system (400 mg/L). Harvests occurred daily throughout the trials. Harvest consisted of 50% of the culture volume daily, with an 80% harvest occurring on day 7. The total trial lasted 12 days for Reactor 1 and 10 days for Reactor 2.
Treatments to control the bacterial population occurred at the time indicated by the vertical dashed line. Reactor 1 received an ozone treatment, and Reactor 2 received an antibiotic treatment. At 190 hours the make-up water for refilling the system was sterilized by chlorination prior to being added to the culture. […]

contaminating bacteria = assay: Treatment of bacterial contamination in outdoor raceway pond mixotrophic Chlorella culture (flow cytometry); assay type: cell-based
Protocol: Contamination observation (400×, 1000× oil immersion-phase contrast micrograph and cell cytometry with bacterial dying) was performed every 2 days, including a measurement of bacterial contamination by flow cytometry. For bacterial contamination measurement, to each 1 ml sample, 1 μl BacLight™ Green bacterial stain (Invitrogen, Eugene, Oreg., USA) as added, and samples were incubated at room temperature in the dark for 30 to 60 minutes. After incubation, samples were analyzed on a BD FACSAria™ (BD Biosciences, San Jose, Calif., USA) and populations of bacteria and algae were gated based on BacLight™ fluorescence and chlorophyll autofluoresence.
Chlorella sp. SNL333 was grown in a mixotrophic system in the pond raceway systems described above in Example 4. The area of the raceway photobioreactor was 5.6 m^2 with an operating volume of 568 L at a depth of […]. One unit was mixed with a pump (Reactor 1), and the other via a paddle wheel (Reactor 2). Air was delivered to the paddle wheel system via an air stone. Air was delivered to the pumped reactor via a venturi injection system. […] The nitrate level in the modified BG-11 recipe consisted of 400 mg/L, and was determined via the nitrate consumption rates from previous trials. […]
Referring to FIG. 28, the percentage of bacteria to Chlorella in the mixotrophic cultures was quantified using the procedure discussed in the previous examples. […]

Protocol for E. coli: 200 ml of bacteria inoculum from a bacteria contaminated photobioreactor was added to 200 ml of BG-11 culture medium. The solution was split in half, with the first solution receiving 6.84 g of glucose and the second solution receiving 5 g of sodium acetate. The pH and optical density of both solutions was taken. The two solutions were each split into three groups of three separate 100 ml volumes, for a control, 10 mMH2O2, and 20 mMH2O2 treatments. Each volume had 2.092 g of MOPS buffer (Sigma Chemical St. Louis, Mo.), and then placed in an incubator set at 27° C., 96 rpm, and 100 μmol/m^2 s of LED light. The volumes were incubated overnight, then brought to a pH of 7.5 using 10 M NaOH and optical density was measured. The treatments of 10 mM H2O2 and 20 mM H2O2 were then added and incubated for 24 h. Optical density and pH were then measured, and methionine was added to one volume of each treatment. Optical density and pH were measured again on the third day and the sixth day before microscope analysis on the sixth day.
The bacteria cultures in glucose and sodium acetate were treated with 0 mM H2O2 (control), 1 mM H2O2, 2.5 mM H2O2, and 5 mM H2O2.

CC(=O)O [Acetic Acid, acetic acid]
Mixotrophic Chlorella Daily Productivity (Chlorella; Day 1, organic carbon source fed by pH-auxostat, 25° C., 24 hour photoperiod): 1.04 g/L day | Mixotrophic Chlorella Daily Productivity (Chlorella; Day 2): 1.21 g/L day | Mixotrophic Chlorella Daily Productivity (Chlorella; Day 3): 1.27 g/L day | Mixotrophic Chlorella Daily Productivity (Chlorella; Day 4): 1.97 g/L day | Mixotrophic Chlorella Daily Productivity (Chlorella; Day 5): 1.40 g/L day

OO [H2O2, hydrogen peroxide]
effect on growth of bacteria cultures (E. coli; 10 mM and 20 mM H2O2, glucose and acetate mediums, 20 mM greater effect than 10 mM): negatively affected the growth of bacteria cultures in both glucose and acetate mediums | inhibitory effect on growth of the bacteria versus H2O2 concentration (E. coli; 1, 2.5 and 5 mM H2O2, one time treatment, glucose and sodium acetate cultures, growth eventually recovers): inhibitory effect on the growth of the bacteria increased

O=[O+][O-] [ozone]
average yield for the three days after the treatment (Chlorella sp. SNL333): 105 g/m^2 d | percentage of bacteria to Chlorella after treatment (contaminating bacteria; after the treatment (ozone 0.10-0.20 mg/L for 17 h; antibiotic mix of Table 4)): 1.4% | percentage of bacteria to Chlorella before treatment (contaminating bacteria; before the treatment): 6.5%
